From paper PMC9866191, “Novel 9-Benzylaminoacridine Derivatives as Dual Inhibitors of Phosphodiesterase 5 and Topoisomerase II for the Treatment of Colon Cancer” (Molecules, 2023)

Columns and labels:
PDE5A = target: T1, PDE5A (Homo sapiens, UniProt O76074); assay: Phosphodiesterase 5 HTRF cGMP assay; assay type: biochemical; details: for IC50: means ± S.D. (n = 4), read-out: PDE5 IC50; for inhibition at 10 µM: read-out: PDE5 % Inhibition at 10 μM
T1 construct: purchased BPS Bioscience, San Diego, CA, USA
Protocol: All the synthesized acridine derivatives were tested for their in vitro ability to inhibit PDE5A at a screening dose of 10 µM.
The enzyme activities of phosphodiesterase 5 (PDE5) were measured using an HTRF cGMP assay kit (Cisbio, Codolet, France). […] Afterward, the HTRF reagent (cGMP-d2 and anti-cGMP-cryptate) was added for 1 h at 25 °C, and PDE activity was assayed on an HTRF reader (Tecan Infinite F200 Pro).

[1] = system: panel of 60 human tumor cell lines; assay: NCI 60-cell line one-dose screen (mean); assay type: cell-based; details: mean of the 60 cell lines, single dose 10^−5 M, read-out: Mean % Growth Inhibition
Protocol: (§1) The newly synthesized compounds were screened for their in vitro anticancer activity at the Developmental Therapeutic Program (DTP) of the National Cancer Institute (NCI). The screening involved a panel of 60 human tumor cell lines consisting of 9 tissue types to screen for potential anti-cancer agents. The primary screening of submitted compounds was performed by testing a single dose (10^−5 M) in the full NCI-60 panel. The detailed % inhibition by the tested compounds against the 60 cell lines is shown in Tables S1–S3 in the Supporting Information.

CCRF-CEM = assay: NCI-60 one-dose screen; assay type: cell-based; details: Homo sapiens, Leukemia panel, single dose 10^−5 M, read-out: Growth inhibition %
A498 = assay: NCI-60 one-dose screen; assay type: cell-based; details: Homo sapiens; A498, Renal Cancer panel; single dose 10^−5 M; read-out: Growth inhibition %
Protocol: as §1

HCT-15 = assay: NCI-60 one-dose screen; assay type: cell-based; details: Homo sapiens; HCT-15, Colon Cancer panel; single dose 10^−5 M; read-out: Growth inhibition %
Protocol: as §1

K-562 = assay: NCI-60 one-dose screen; assay type: cell-based; details: Homo sapiens, K562; K-562, Leukemia panel; single dose 10^−5 M; read-out: Growth inhibition %
Protocol: as §1

KM12 = assay: NCI-60 one-dose screen; assay type: cell-based; details: Homo sapiens; KM12, Colon Cancer panel; single dose 10^−5 M; read-out: Growth inhibition %
Protocol: as §1

MDA-MB-231/ATCC = assay: NCI-60 one-dose screen; assay type: cell-based; details: Homo sapiens, Breast Cancer panel, single dose 10^−5 M, read-out: Growth inhibition %
Protocol: as §1

MDA-MB-435 = assay: NCI-60 one-dose screen; assay type: cell-based; details: Homo sapiens; MDA-MB-435, Melanoma panel; single dose 10^−5 M; read-out: Growth inhibition %
Protocol: as §1

MOLT-4 = assay: NCI-60 one-dose screen; assay type: cell-based; details: Homo sapiens; MOLT-4, Leukemia panel; single dose 10^−5 M; read-out: Growth inhibition %
Protocol: as §1

NCI-H226 = assay: NCI-60 one-dose screen; assay type: cell-based; details: Homo sapiens; NCI-H226, Non-small cell lung panel; single dose 10^−5 M; read-out: Growth inhibition %
Protocol: as §1

NCI-H460 = assay: NCI-60 one-dose screen; assay type: cell-based; details: Homo sapiens; NCI-H460, Non-small cell lung panel; single dose 10^−5 M; read-out: Growth inhibition %
Protocol: as §1

OVCAR-3 = assay: NCI-60 one-dose screen; assay type: cell-based; details: Homo sapiens; OVCAR-3, Ovarian Cancer panel; single dose 10^−5 M; read-out: Growth inhibition %
Protocol: as §1

OVCAR-5 = assay: NCI-60 one-dose screen; assay type: cell-based; details: Homo sapiens; OVCAR-5, Ovarian Cancer panel; single dose 10^−5 M; read-out: Growth inhibition %
Protocol: as §1

OVCAR-8 = assay: NCI-60 one-dose screen; assay type: cell-based; details: Homo sapiens; OVCAR-8, Ovarian Cancer panel; single dose 10^−5 M; read-out: Growth inhibition %
Protocol: as §1

RPMI-8226 = assay: NCI-60 one-dose screen; assay type: cell-based; details: Homo sapiens; RPMI-8226, Leukemia panel; single dose 10^−5 M; read-out: Growth inhibition %
Protocol: as §1

RXF 393 = assay: NCI-60 one-dose screen; assay type: cell-based; details: Homo sapiens; RXF 393, Renal Cancer panel; single dose 10^−5 M; read-out: Growth inhibition %
Protocol: as §1

SF-539 = assay: NCI-60 one-dose screen; assay type: cell-based; details: Homo sapiens; SF-539, CNS Cancer panel; single dose 10^−5 M; read-out: Growth inhibition %
Protocol: as §1

SK-MEL-28 = assay: NCI-60 one-dose screen; assay type: cell-based; details: Homo sapiens; SK-MEL-28, Melanoma panel; single dose 10^−5 M; read-out: Growth inhibition %
Protocol: as §1

SK-OV-3 = assay: NCI-60 one-dose screen; assay type: cell-based; details: Homo sapiens; SK-OV-3, Ovarian Cancer panel; single dose 10^−5 M; read-out: Growth inhibition %
Protocol: as §1

SNB-19 = assay: NCI-60 one-dose screen; assay type: cell-based; details: Homo sapiens; SNB-19, CNS Cancer panel; single dose 10^−5 M; read-out: Growth inhibition %
Protocol: as §1

TK-10 = assay: NCI-60 one-dose screen; assay type: cell-based; details: Homo sapiens; TK-10, Renal Cancer panel; single dose 10^−5 M; read-out: Growth inhibition %
Protocol: as §1

UO-31 = assay: NCI-60 one-dose screen; assay type: cell-based; details: Homo sapiens; UO-31, Renal Cancer panel; single dose 10^−5 M; read-out: Growth inhibition %
Protocol: as §1

SF-268 = assay: NCI-60 one-dose screen; assay type: cell-based; details: Homo sapiens; SF-268, CNS Cancer panel; single dose 10^−5 M; read-out: Growth inhibition %
LOX IMVI = assay: NCI-60 one-dose screen; assay type: cell-based; details: Homo sapiens, Melanoma panel, single dose 10^−5 M, read-out: Growth inhibition %
IGROV1 = assay: NCI-60 one-dose screen; assay type: cell-based; details: Homo sapiens, IGROV-1; IGROV1, Ovarian Cancer panel; single dose 10^−5 M; read-out: Growth inhibition %
HCT-116 = assay: MTT cell proliferation assay, HCT-116; details: for % Inhibition at 10 µM: 72 h MTT, means ± SD; for IC50: read-out: IC50 μM, 72 h MTT, means ± SD, three experiments
Protocol: In the MTT assay, 96-well culture plates were used. A total of 7 × 10^4 cells per well were seeded, and test materials were added to the cells at various concentrations [47, 48]. Human cancer and non-cancer cell lines were purchased commercially from the American Type Culture Collection (ATCC). After 72 h, the cytotoxicity of the compounds and paclitaxel (as a positive control group) was detected using the MTT method (thiazolyl blue tetrazolium bromide, Sigma-M2128). Absorbance values at 570 and 620 nm (OD = OD570–OD620) were measured using an ELISA reader (Anthos Labtec Instruments, Salzburg, Austria).

CCD-966SK = assay: MTT cell proliferation assay, CCD-966SK; details: CCD966SK skin fibroblast, 72 h MTT

| SMILES | IC50 (PDE5A) [µM] | inhibition at 10 µM (PDE5A) [%] | inhibition at 10 µM [1] [%] | inhibition at 10 µM (CCRF-CEM) [%] | inhibition at 10 µM (A498) [%] | inhibition at 10 µM (HCT-15) [%] | inhibition at 10 µM (K-562) [%] | inhibition at 10 µM (KM12) [%] | inhibition at 10 µM (MDA-MB-231/ATCC) [%] | inhibition at 10 µM (MDA-MB-435) [%] | inhibition at 10 µM (MOLT-4) [%] | inhibition at 10 µM (NCI-H226) [%] | inhibition at 10 µM (NCI-H460) [%] | inhibition at 10 µM (OVCAR-3) [%] | inhibition at 10 µM (OVCAR-5) [%] | inhibition at 10 µM (OVCAR-8) [%] | inhibition at 10 µM (RPMI-8226) [%] | inhibition at 10 µM (RXF 393) [%] | inhibition at 10 µM (SF-539) [%] | inhibition at 10 µM (SK-MEL-28) [%] | further results |
| --- | --- | --- | --- | --- | --- | --- | --- | --- | --- | --- | --- | --- | --- | --- | --- | --- | --- | --- | --- | --- | --- |
| Cc1cccc(CNc2c3ccccc3nc3ccccc23)c1 [Compound 3, Acridin-9-yl-(3-methylbenzyl)-amine] | 6.4 ± 1.89 | 59.3 ± 6.18 | 77.2 | 85.2 | 102 | 84.1 | 98.1 | 74.4 | 61.3 | 70.9 | 97.7 | 59.4 | 91.3 | 69.2 | 64.2 | 79.7 | 120 | 102 | 88.3 | 41.2 | inhibition at 10 µM (SK-OV-3): 54.7%; inhibition at 10 µM (SNB-19): 70.3%; inhibition at 10 µM (TK-10): 61.6%; inhibition at 10 µM (UO-31): 85.3%; inhibition at 10 µM (SF-268): 48%; inhibition at 10 µM (LOX IMVI): 93.8%; inhibition at 10 µM (IGROV1): 80.5%; % Inhibition at 10 µM (HCT-116): 66.71 ± 2.10%; IC50 (HCT-116): 4.6 ± 0.07 µM; % Inhibition at 10 µM (CCD-966SK): 54.31 ± 0.98%; IC50 (CCD-966SK; read-out: IC50 μM): 8.51 ± 0.07 µM |
| Cc1ccc(CNc2c3ccccc3nc3ccccc23)cc1 [Compound 4, Acridin-9-yl-(4-methylbenzyl)-amine] | 4.44 ± 1.82 | 74 ± 12.4 | 74.8 | 79.1 | 92.4 | 84.4 | 97 | 76.5 | 56.8 | 68.8 | 95.7 | 58.5 | 91.2 | 65.8 | 61.9 | 78.2 | 111 | 89.7 | 81.9 | 40.5 | inhibition at 10 µM (SK-OV-3): 53.1%; inhibition at 10 µM (SNB-19): 70.3%; inhibition at 10 µM (TK-10): 64.2%; inhibition at 10 µM (UO-31): 88%; inhibition at 10 µM (SF-268): 48.1%; inhibition at 10 µM (LOX IMVI): 88.2%; inhibition at 10 µM (IGROV1): 80.6%; % Inhibition at 10 µM (HCT-116): 69.31 ± 2.09%; IC50 (HCT-116): 3.59 ± 0.27 µM; % Inhibition at 10 µM (CCD-966SK): 38.07 ± 5.90% |
| COc1ccccc1CNc1c2ccccc2nc2ccccc12 [Compound 5, Acridin-9-yl-(2-methoxybenzyl)-amine] | > 10 | 45.1 ± 4.54 | 60.8 | 62.5 | 86.7 | 74 | 89.9 | 67.1 | 42.4 | 57.4 | 79.3 | 60.1 | 89.8 | 45.7 | 50.2 | 68.1 | 91.9 | 69.4 | 78.8 | 20 | inhibition at 10 µM (SK-OV-3): 38.6%; inhibition at 10 µM (SNB-19): 64.2%; inhibition at 10 µM (TK-10): 44.5%; inhibition at 10 µM (UO-31): 66.3%; inhibition at 10 µM (SF-268): 34.9%; inhibition at 10 µM (LOX IMVI): 81.1%; inhibition at 10 µM (IGROV1): 73.7%; % Inhibition at 10 µM (HCT-116): 63.71 ± 0.62%; IC50 (HCT-116): 6.83 ± 0.31 µM; % Inhibition at 10 µM (CCD-966SK): 6.65 ± 1.18% |
